According to patent US20020037872A1, “N6 heterocyclic 5' modified adenosine derivatives” (CV Therapeutics, Inc., priority 1999, published 2002):
“Also recorded” adds a separate entry of the source.

What was measured:
A1 receptor [1] = biological target: T1, A1 receptor (Oryctolagus cuniculus, UniProt P34970); conditions: administered prior to ischemia; cited from earlier work
T1 construct: a rabbit ischemia model wherein 2-chloro-N6-cyclopentyladenosine (CCPA) and R-PIA were administered prior to ischemia; host or cells: rabbit in vivo
T1 sequence (P34970 1-328): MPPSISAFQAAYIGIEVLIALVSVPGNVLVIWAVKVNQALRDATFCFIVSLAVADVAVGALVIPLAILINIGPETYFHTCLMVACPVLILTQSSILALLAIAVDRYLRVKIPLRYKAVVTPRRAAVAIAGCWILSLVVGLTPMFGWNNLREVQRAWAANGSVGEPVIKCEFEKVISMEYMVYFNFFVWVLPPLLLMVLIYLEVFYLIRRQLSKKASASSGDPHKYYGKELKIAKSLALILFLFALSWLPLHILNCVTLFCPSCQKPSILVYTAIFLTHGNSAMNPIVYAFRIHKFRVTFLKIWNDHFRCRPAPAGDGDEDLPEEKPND

A1 adenosine receptor [2] = biological target: T2, A1 adenosine receptor (Cavia porcellus, UniProt P47745); assay: Guinea pig isolated perfused heart: S-H interval, heart rate, atrial MAP; conditions: for effect on atrial monophasic action potential: FIG. 1 panel B; for effect on AV nodal conduction time (S-H interval) / second-degree AV block: FIG. 1 panel C; for effect on heart rate (chronotropic): spontaneously beating hearts, FIG. 1 panel A
T2 construct: The hearts were quickly removed and rinsed in ice-cold Krebs-Henseleit solution; from tissue; host or cells: guinea pig isolated perfused heart
T2 sequence (P47745 1-326): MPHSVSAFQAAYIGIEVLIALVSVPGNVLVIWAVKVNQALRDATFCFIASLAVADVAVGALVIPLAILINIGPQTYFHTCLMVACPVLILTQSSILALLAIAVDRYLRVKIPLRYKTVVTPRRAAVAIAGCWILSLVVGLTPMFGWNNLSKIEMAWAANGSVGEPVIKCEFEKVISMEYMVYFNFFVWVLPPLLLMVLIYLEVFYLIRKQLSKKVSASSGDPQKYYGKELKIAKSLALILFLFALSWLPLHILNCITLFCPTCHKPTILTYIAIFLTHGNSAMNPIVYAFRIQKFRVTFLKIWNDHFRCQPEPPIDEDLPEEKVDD
Experimental: Guinea pigs of either sex weighing 250-300 g were anesthetized with methoxyflurane and killed by cervical dislocation. The hearts were quickly removed and rinsed in ice-cold Krebs-Henseleit solution. The aorta was cannulated and the heart retrogradely perfused at a constant flow of 10 ml min^−1 with modified Krebs-Henseleit solution containing (mM): NaCL 117.9, KCl 4.8, CaCl2 2.5, MgSO4 1.18, KH2PO4 1.2, Na2EDTA 0.5, ascorbic acid 0.14, glucose 5.5, pyruvic acid (sodium salt) 2.0, and NaHCO3 25. The K—H solution was oxygenated with 95% oxygen and 5% CO2, pH 7.4, and temperature maintained at 36° C.
Hearts were electrically paced at a cycle length of 290-300 ms (unless otherwise indicated) using a bipolar electrode placed on the right atrium or ventricle. The stimulator, an interval generator (Model 1830, WPI, Sarasota, Fla., U.S.A.) delivered stimuli through a stimulus isolation unit (Model 1880, WPI) as square wave pulses of 3 ms in duration and at least twice the threshold intensity. The stimulus-to-His bundle (S—H) interval was used as index of AV nodal conduction time and was measured on-line during constant atrial pacing from microcomputer with a DT-208 1A interface board (Axon Instruments, Burlingame, Calif., U.S.A.) In experiments to study the chronotropic effect (effect on heart rate) of A1 AdoR agonists, the hearts were allowed to beat spontaneously. An atrial electrogram was used to record the electrical activity of the atria and to measure the heart rate.
Monophasic action potentials (MAP) were recorded using a pressure contact silver-silver chloride electrode (Langendorf Probe, EP Technologies, Inc., Sunnyvale, Calif., U.S.A.) placed on the surface of the left atrium. […] Signals were considered adequate if they were stable for at least 5 min and the amplitudes of the MAPs exceeded 10 mV. The data were digitized at 2 kHz by a DT-2801A digitizing board (Data Translation, Marlboro, Mass., U.S.A.) and stored using the Snapshot data acquisition program (Snapshot Storage Scope, HEM Data Corp., Southfield, Mich., U.S.A.) for later analysis. The duration of the atrial monophasic action potential was measured at 90% repolarization (MAPD90), using the Snapshot program. After completion of dissection and instrumentation, the hearts were allowed to equilibrate for 30 min before the experiments were begun. Whenever the baseline and post-intervention (washout) values differed by more than 15% the data were discarded. Approximately 60-70% of the experiments conformed with this criteria.

A1 adenosine receptor [3] = biological target: T3, A1 adenosine receptor (Mesocricetus auratus, UniProt A0A1U8BVR4); assay: cAMP assay (SPA) in DDT1 cells, forskolin-induced cAMP; assay type: cell-based, hamster
T3 construct: endogenous in cells; host or cells: DDT1 (DDT1 MF-2) hamster vas deferens smooth muscle cells
T3 sequence (A0A1U8BVR4 1-326): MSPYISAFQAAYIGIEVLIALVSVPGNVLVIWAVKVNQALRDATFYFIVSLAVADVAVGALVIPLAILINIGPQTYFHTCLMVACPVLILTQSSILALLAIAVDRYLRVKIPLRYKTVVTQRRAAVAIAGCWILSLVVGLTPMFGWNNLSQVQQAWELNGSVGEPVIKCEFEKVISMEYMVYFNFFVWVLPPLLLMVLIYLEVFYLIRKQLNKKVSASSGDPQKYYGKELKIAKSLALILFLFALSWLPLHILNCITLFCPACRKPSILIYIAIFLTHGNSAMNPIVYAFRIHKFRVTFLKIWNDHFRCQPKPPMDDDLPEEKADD
Experimental: A scintillation proximity assay (SPA) using rabbit antibodies directed at cAMP using an added tracer of adenosine 3′,5′-cyclic phosphoric acid 2′-O-succinyl-3-[^125I]iodotyrosine methyl ester and fluoromicrospheres containing anti-rabbit specific antibodies as described by Amersham Pharmacia Biotech (Biotrak cellular communication assays). Briefly, DDT1 cells were cultured in clear bottomed 96 well microtiter plates with opaque wells at concentrations between 10^4 to 10^6 cells per well in 40 μl of HBSS at 37° C. (5% CO2 and 95% humidity). The partial or full A1 agonists (5 μl) of this invention were incubated at various concentrations with the DDT1 cells in the presence of rolipram (50 μM), and 5 μM forskolin for 10 min at 37° C. The cells were immediately lysed by treatment 5 μl of 10% dodecyltrirnethylammonium bromide followed by shaking using rnicroplate shaker. After incubation of the plate for 5 minutes, an imnuunoreagent solution (150 μl containing equal volumes of tracer, antiserum, and SPA fluorospheres) was added to each well followed by sealing the plate. After 15-20 h at 23° C., the amount of bound [^125] cAM to the fluoromicrospheres was determined by counting in a microtitre plate scintillation counter for 2 minutes. Comparison of counts with standard curves generated for cAMP using a similar protocol afforded the cAMP present after cell lysis.

A1 receptor [4] = biological target: A1 receptor (Cavia porcellus, UniProt P47745); conditions: chronic administration for 7 days; cited from earlier work
white adipocytes = conditions: cited from earlier work
[5] = seizures induced by DMCM; cited from earlier work

| Compound | effect on atrial monophasic action potential (A1 adenosine receptor [2]) | effect on AV nodal conduction time (S-H interval) (A1 adenosine receptor [2]) | second-degree AV block (A1 adenosine receptor [2]) | effect on heart rate (chronotropic) (A1 adenosine receptor [2]) | also measured |
| --- | --- | --- | --- | --- | --- |
| OC[C@H]1O[C@@H](n2cnc3c(NC4CCCC4)nc(Cl)nc32)[C@H](O)[C@@H]1O [CCPA, 2-chloro-N6-cyclopentyladenosine] | shortened the monophasic atrial action potential | prolonged the S—H interval | caused second-degree AV block | slowed heart rate | protection with respect to infarct size (A1 receptor [1]): providing protection with respect to infarct size |
| OC[C@H]1O[C@@H](n2cnc3c(NC4CCCC4)ncnc32)[C@H](O)[C@@H]1O [CPA, N-6-cyclopentyladenosine] | shortened the monophasic atrial action potential | prolonged the S—H interval | caused second-degree AV block | slowed heart rate | second degree AV block (A1 adenosine receptor [2]; 30 nM CPA, four hearts): Second degree AV block occurred in all hearts; effect on forskolin induced cAMP generation (A1 adenosine receptor [3]; DDT1 cells): diminished the amount of forskolin induced cAMP generation back to basal levels; cAMP (A1 adenosine receptor [3]; normalized to full agonist CPA, 5 μM forskolin, 50 μM rolipram): 100% |
| O=c1[nH]c(=O)c2[nH]c(C3CCCC3)nc2[nH]1 [CPX, 8-cyclopentylxanthine] | – | – | – | – | antagonism of S-H interval prolongation caused by Compound 6 (A1 adenosine receptor [2]; CPX 50 nM, cycle length 300 msec, FIG. 2): significant (P<0.05); also recorded: antagonizes the prolongation of S—H interval caused by compound 6 |
| C[C@H](Cc1ccccc1)Nc1ncnc2c1ncn2[C@@H]1O[C@H](CO)[C@@H](O)[C@H]1O [R-PIA, R-N6-phenylisopropyladenosine] | – | – | – | – | desensitization of A1 receptor (dromotropic response) (A1 receptor [4]): led to a desensitization; leptin release (white adipocytes): increase the leptin released from white adipocytes |
| Cc1ccccc1CNc1ncnc2c1ncn2[C@@H]1O[C@H](CO)[C@@H](O)[C@H]1O [metrifudil] | – | – | – | – | anticonvulsant activity [5]: potent anticonvulsant |
